Values quoted from earlier work as cited in patent US8877445B2, “Methods for identification of tumor phenotype and treatment” (Intelligent Oncotherapeutics, Inc., priority 2008, dated 2014).
Blank lines part the entries; values can stand above or below the compound they belong to. Where no end group is shown, it is not given here. [ ]: non-standard residue; d: D form.

Tests used:
patients [1] = details: clinical phase I trial
[2] = test system: cultured human tumor cells
[3] = in vivo
aurora B = aurora B (Homo sapiens, UniProt Q96GD4); details: at efficacious concentrations
[4] = test system: subcutaneous human tumor xenografts; details: for mitotic accumulation and apoptosis in xenografts / tolerability of efficacious doses: mouse, in vivo; for tolerability of efficacious doses: po; for tumor growth: oral administration (MLN8237: repeated) at well tolerated doses
patients [5] = test system: patients
melanoma cells = details: in vitro (Ghosh et al. 2005)
Aurora A [6] = target: T1, Aurora A (Homo sapiens, UniProt O14965); details: in vitro
Aurora A [7] = target: T1, Aurora A; details: cultured cells
FOXM1 = target: T2, FOXM1 (Homo sapiens, UniProt Q08050)
T2 sequence (Q08050 1-763): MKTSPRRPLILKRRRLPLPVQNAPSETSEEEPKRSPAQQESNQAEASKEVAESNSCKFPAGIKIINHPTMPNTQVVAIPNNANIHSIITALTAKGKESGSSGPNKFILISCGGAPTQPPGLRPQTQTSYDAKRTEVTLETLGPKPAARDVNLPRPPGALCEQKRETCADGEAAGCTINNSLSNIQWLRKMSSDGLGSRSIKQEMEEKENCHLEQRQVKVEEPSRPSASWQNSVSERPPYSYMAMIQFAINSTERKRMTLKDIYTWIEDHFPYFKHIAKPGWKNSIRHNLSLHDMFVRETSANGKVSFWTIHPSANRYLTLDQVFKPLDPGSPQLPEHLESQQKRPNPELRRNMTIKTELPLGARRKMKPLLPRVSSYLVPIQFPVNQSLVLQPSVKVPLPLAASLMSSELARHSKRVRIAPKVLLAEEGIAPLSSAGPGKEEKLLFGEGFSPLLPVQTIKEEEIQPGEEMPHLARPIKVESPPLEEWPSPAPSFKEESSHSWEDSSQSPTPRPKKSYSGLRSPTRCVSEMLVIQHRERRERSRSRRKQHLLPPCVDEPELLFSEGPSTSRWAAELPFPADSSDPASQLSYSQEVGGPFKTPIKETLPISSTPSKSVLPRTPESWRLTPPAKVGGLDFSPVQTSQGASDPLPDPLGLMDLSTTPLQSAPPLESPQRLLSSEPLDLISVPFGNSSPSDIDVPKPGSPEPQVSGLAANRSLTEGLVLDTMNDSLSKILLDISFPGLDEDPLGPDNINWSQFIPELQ

cells = details: reviewed in Agnese et al. 2007
human tumor types = details: in vivo, wide range of human tumor types (Pan et al. 2008)
[8] = test system: leukemia, colon and pancreatic tumors
patients [9] = details: phase I; dose levels well below those which cause dose-limiting toxicity (ASCO 2008 abstract #3009)

T1 sequence (O14965 whole entry): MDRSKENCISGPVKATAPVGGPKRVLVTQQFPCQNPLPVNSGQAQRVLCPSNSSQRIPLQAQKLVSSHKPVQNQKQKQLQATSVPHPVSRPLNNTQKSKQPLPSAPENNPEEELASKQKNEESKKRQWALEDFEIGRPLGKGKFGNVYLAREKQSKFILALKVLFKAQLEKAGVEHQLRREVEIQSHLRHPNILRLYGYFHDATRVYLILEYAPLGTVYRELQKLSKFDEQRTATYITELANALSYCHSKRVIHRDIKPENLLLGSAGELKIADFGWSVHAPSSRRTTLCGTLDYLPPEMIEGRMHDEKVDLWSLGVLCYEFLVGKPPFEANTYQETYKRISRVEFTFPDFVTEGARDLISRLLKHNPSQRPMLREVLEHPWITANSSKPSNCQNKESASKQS
aurora B, sequence (Q96GD4 whole entry): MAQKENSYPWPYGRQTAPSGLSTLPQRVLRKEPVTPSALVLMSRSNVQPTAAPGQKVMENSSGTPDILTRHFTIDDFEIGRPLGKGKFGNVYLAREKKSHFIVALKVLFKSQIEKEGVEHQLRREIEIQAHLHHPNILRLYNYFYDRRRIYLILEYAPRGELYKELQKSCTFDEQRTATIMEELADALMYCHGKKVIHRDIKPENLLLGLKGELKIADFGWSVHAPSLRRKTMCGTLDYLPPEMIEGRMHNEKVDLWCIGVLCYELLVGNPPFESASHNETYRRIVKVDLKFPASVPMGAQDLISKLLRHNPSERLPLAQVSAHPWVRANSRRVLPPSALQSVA

Compound: Cc1cc(Nc2ncc(F)c(NC3C4C=CC(C4)C3C(N)=O)n2)ccc1N1CCN(C)CC1 (stereo not shown) [AS703569]
- toxicities (patients [1]): tolerable toxicities

Compound: COc1cc(Nc2ncc3c(n2)-c2ccc(Cl)cc2C(c2c(F)cccc2OC)=NC3)ccc1C(=O)O [MLN8237]
- effects on cultured human tumor cells [2]: mitotic spindle abnormalities, mitotic accumulation, inhibition of cell proliferation and apoptosis
- pharmacokinetic profile [3]: favorable pharmacokinetic profile
- oral bioavailability ([3]; po): orally bioavailable
- aurora B inhibition (aurora B): did not appreciably inhibit aurora B
- mitotic accumulation and apoptosis in xenografts [4]: induced mitotic accumulation and apoptosis
- tolerability of efficacious doses [4]: well tolerated doses
- tumor growth [4]: dramatic tumor growth inhibition in all tumor models evaluated
- accumulation of mitotic cells ([4]; single oral administration): time dependent accumulation of mitotic cells

Compound: CCN(CCCOc1ccc2c(Nc3cc(CC(=O)Nc4cccc(F)c4)n[nH]3)ncnc2c1)CCOP(=O)(O)O [AD1152]
- toxicity (patients [5]; phase I): neutropenia as the only significant toxicity
- patients with significant disease stabilization (patients [5]; phase I (ASCO 2008 abstract #3008)): 5 of 12

Compound: O=C(Nc1cccc(Cl)c1)Nc1ncc(CCNc2ncnc3ccsc23)s1 [SNS-314]
- toxicities (patients [1]): tolerable toxicities

Compound: CO[C@@H](C(=O)N1Cc2n[nH]c(NC(=O)c3ccc(N4CCN(C)CC4)cc3)c2C1)c1ccccc1 [PHA-739358]
- toxicities (patients [1]): tolerable toxicities

Compound: CC(=O)NCC(=O)N1[C@@H]2CC[C@H]1c1ccc(Nc3ncc(C(F)(F)F)c(NC4CCC4)n3)cc12 [PF-03814735]
- toxicities (patients [1]): tolerable toxicities

Compound: C=CCc1ccc(O)c(OC)c1 [Eugenol]
- E2F1 targeting and killing of melanoma cells (melanoma cells): target E2F1 and kill melanoma cells

Compound: COc1cc2c(Nc3ccc(NC(=O)c4ccccc4)cc3)ncnc2cc1OCCCN1CCOCC1 [ZM 447439]
- toxicities (patients [1]): tolerable toxicities

Compound: O=C(O)c1ccc(Nc2ncc3c(n2)-c2ccc(Cl)cc2C(c2c(F)cccc2F)=NC3)cc1 [MLN8054]
- toxicities (patients [1]): tolerable toxicities
- effects on cultured human tumor cells [2]: G2/M accumulation and spindle defects and inhibits proliferation
- duration of tumor growth inhibition ([4]; after end of treatment): sustained after discontinuing MLN8054 treatment
- mitotic accumulation and apoptosis in xenografts [4]: induced mitotic accumulation and apoptosis
- tolerability of efficacious doses [4]: well tolerated doses
- tumor growth [4]: dramatically inhibited
- Aurora A kinase activity (Aurora A [6]): inhibits recombinant Aurora A kinase activity
- selectivity Aurora A over Aurora B (Aurora A [7]): selective for Aurora A over the family member Aurora B

- action on FOXM1 (FOXM1; Gusarova et al. 2007): blocks FOXM1
Compound: (D-Arg)9-p19ARF 26-44: small peptide that blocks FOXM1; rrrrrrrrrrKFVRSRRPRTAS-CALAFVN containing nine D-Arg residues at the amino terminus ([dR][dR][dR][dR][dR][dR][dR][dR][dR]KFVRSRRPRTASCALAFVN; not fully specified; printed as rrrrrrrrrrKFVRSRRPRTAS-CALAFVN; UniProt Q64364 26-44, looked up, fragment)
- effects in vitro and in vivo (FOXM1; both in vitro and in vivo): growth inhibition, reduction in levels of survivin, aurora B kinase, and PLK1 as well as inducing apoptosis

Compound: Cc1cc(Nc2cc(N3CCN(C)CC3)nc(Sc3ccc(NC(=O)C4CC4)cc3)n2)[nH]n1 [VX-680]
- effect on cell proliferation, spindle formation, DNA copies, cell death (cells): block cell proliferation, disrupt bipolar spindle formation, and lead to accumulation of cells with 4N or greater numbers of chromosomal DNA copies and eventual cell death
- cell-cycle progression and apoptosis (human tumor types): blocks cell-cycle progression and induces apoptosis
- tolerability of efficacious doses ([8]; xenograft models): well-tolerated doses
- tumor regression ([8]; xenograft models): regression of leukemia, colon and pancreatic tumors
- tumor growth ([8]; xenograft models (Harrington et al. 2004)): substantial inhibition of tumor growth
- patients who achieved stable disease (patients [9]): three of 16

Compound: COCC[n+]1c2c(n(Cc3cnccn3)c1C)C(=O)c1ccccc1C2=O.[Br-] [YM155]
- toxicity (solid tumors; phase I): tolerable toxicity
- clinical activity (solid tumors; phase I (2008 abstracts #3536, 5135, 8538)): clinical activity in solid tumors
